Assays:
PDE4B = biological target: T1, PDE4B (Homo sapiens, UniProt Q07343); assay: PDE4B Scintillation Proximity (SPA) Assay; format: biochemical; conditions: PDE4B active site fragment amino acids 152-484, [3H]cAMP, 30° C., one hour; read-out: Experimentally determined IC50-value for PDE4B inhibition
T1 construct: active site fragment comprising the amino acids 152-484
Description: The IC50-values of the compounds of the invention (Example Compounds 1 and 2) and of the above-mentioned prior art compounds A to D with respect to their PDE4B-inhibiting ability have been determined with a Scintillation Proximity (SPA) Assay (GE Healthcare, No. TRKQ7090).
The Scintillation Proximity (SPA) Assay is based on the detection of the different affinities of the cyclic 3′-5′-adenosine monophosphate (cAMP, low affinity) and the linear 5′-adenosine monophosphate (AMP, high affinity) to yttrium-silicate-scintilator beads. The cAMP-specific phosphodiesterase (PDE) PDE4B cleaves the 3′-phosphodiester bond of the tritium-labelled-[^3H]cAMP to the [^3H]5′-AMP. This [^3H]5′-AMP associates with the scintillator beads because of their higher affinity and causes scintillations (light flashes) which can be measured in a Wallac Microbeta Scintillation Counter.
10 μl of a [^3H]cAMP-solution (0.05 μCi in H2O, 10-30 Ci/mmol) are added to 89 μl of a PDE4B-enzyme-solution (active site fragment comprising the amino acids 152-484; 0.15-0.18 ng) in assay buffer (50 mM Tris HCl pH 7.5; 8.3 mM MgCl2; 1.7 mM ethylene glycol tetraacetic acid (EGTA); 0.25 mg/ml bovine serum albumin (BSA)) and this mixture is incubated at 30° C. for one hour
a) without the compound to be tested (in the presence of 1 μl dimethylsulfoxide (DMSO), corresponding to 1% DMSO) and b) in the presence of the compound to be tested in a concentration of 125 μM, 25 μM, 5 μM, 1 μM, 200 nM, 40 nM, 8 nM, 1.6 nM, 0.32 nM, 0.064 nM, 0.0128 nM (dilution series in 5er-steps beginning from 125 μM until 0.0128 nM, in the presence of 1% DMSO).
After this incubation the reaction is stopped by the addition of 50 μl of bead-solution (500 mg beads/35 ml H2O, 18 mM zinc sulfate). In the following 45 minutes the beads have the opportunity to form a sediment. After that the scintillations are measured in the scintillation counter. If the tested compound is able to inhibit the enzymatic activity of the PDE4B-enzyme, less [^3H]AMP depending on the concentration of the tested compound is produced and less scintillations are measurable. […] The IC50-value stands for the compound concentration at which the PDE4B enzyme activity is inhibited to a half maximal value. Therefore the lower the IC50-value is the better is the PDE4B inhibition.

[1] = system: LPS-induced neutrophil influx into bronchoalveolar lavage fluid of male Wistar rats; assay: Inhibition of LPS-induced neutrophil influx into bronchoalveolar lavage fluid (LPS-induced lung inflammation model); format: in vivo; conditions: ED50 found in efficacy studies in the rat
Protocol: The anti-inflammatory activity of Examples 1 and 2 and of Prior art compounds A and D was assessed in an in vivo LPS-induced lung inflammation model in rats.
As a measure of the pharmacological potency of the above mentioned compounds the half-maximal effective dose (ED50) in regard to the inhibition of lipopolysaccharide-induced (LPS-induced) neutrophil influx into the bronchoalveolar lavage fluid (BALF) was determined by assessing the dose response relationship. Bacterial endotoxins (lipopolysaccharides [LPS]) are components of the outer bacterial cell membrane which play an important role in the pathogenesis of infections with gram-negative bacteria. It is known that inhalation of such aerosolized LPS induces a dose-dependent increase in neutrophils to lung tissues and airspaces in rats which may be detected by analyzing the amount of neutrophils in the bronchoalveolar lavage fluid (BALF). […]
Determination of neutrophil content of the BALF was performed using an ADVIA 120 blood hemacytometer (Bayer Diagnostics). Neutrophil data were normalised (Positive Control (=LPS treatment alone)=100%, Negative Control (no LPS treatment, administration of “vehicle only”)=0%) and expressed as percent of LPS control. The ED50 was calculated using a nonlinear fit (with the Graph Pad Prism software and a sigmoidal dose response fit). […]

conscious rats [2] = assay: Gastric emptying in conscious rats (barium sulfate test meal); format: in vivo, rat
Protocol: (§1) In order to evaluate whether the compounds of the present invention lead to gastrointestinal side effects the compounds of the invention have been administered to rats 30 minutes before the rats were fed with a test meal comprising barium sulfate. After that it was tested whether gastric emptying and/or gastrointestinal transit in these rats was affected by the presence of these compounds.
The effects of the compounds Example 1 and Example 2 on gastric emptying and gastrointestinal transit in conscious rats has been investigated as described below. Wistar rats of both sexes weighing 130-160 g (ages: male 7 wk, female 8 wk) were used. The animals are obtained from an approved local distributor, a minimum of four days quarantine is required before use, during which time the animals are maintained under routine animal care procedures. Groups of up to 5 animals are housed in cages in a room with controlled temperature and humidity and a light/dark cycle with the lights on from 6 a.m. to 6 p.m. The animals have access to normal rodent chow and water ad libitum. The animals are transported to the laboratory on the day of experimentation. Gastric emptying as well as small intestinal propulsion are determined using a barium sulfate test meal.
Five rats Crl:WI(Han) of each sex (n=10) were used. The animals were deprived of food 17 h prior to the experiment but allowed free access to water. The drug under investigation (drug was suspended to the concentration of 10 ml/kg body weight in 0.5% Natrosol solution) or the negative control (vehicle alone was given 10 ml/kg body weight) was administered 30 min (p.o.) before the test meal at doses calculated to be 3-fold, 10-fold or 30-fold the ED50 found in efficacy studies in the rat.
The test meal (suspension of 7.5 g barium sulfate in 10 ml salt-free water) is given orally by gavage at a dose of 2 ml/100 g body weight. Thirty minutes after the administration of the test meal the animals were killed in deep isoflurane anaesthesia by cervical dislocation. The stomach and the intestine were then exposed by laparatomy and removed.
The removed stomach was weighed, then incised, the contents removed and the empty stomach is weighed again.
The gastric content was calculated from the weight difference between the filled and empty stomach and normalized to 100 g body weight. Thus, an increase in weight difference indicated an impaired gastric emptying, whereas a decrease in weight difference indicated an enhanced gastric emptying.
Data are expressed as mean±standard deviation (SD). For each dose, comparisons were performed using an analysis of variance (ANOVA) and a post hoc Dunnett test to compare the various groups to the controls when the ANOVA was significant. p<0.05 was considered significant.

conscious rats [3] = assay: Gastrointestinal (intestinal) transit in conscious rats (barium sulfate test meal); format: in vivo, rat; conditions: all tested doses up to the 30-fold ED50 dose p.o.
Protocol: as §1
The effects of the compounds Example 1 and Example 2 on gastric emptying and gastrointestinal transit in conscious rats has been investigated as described below. Wistar rats of both sexes weighing 130-160 g (ages: male 7 wk, female 8 wk) were used. […] Gastric emptying as well as small intestinal propulsion are determined using a barium sulfate test meal. […]
The length of gut traversed with barium sulfate in relation to the whole length of the gut is determined by direct measurements using a ruler.
The length of gut traversed with barium sulphate (as judged by visual inspection) in relation to the whole length of the gut (from the pylorus to the rectum) is determined by direct measurements using a ruler.
Intestinal transit is calculated as the percentage movement of barium sulphate in the intestine in relation to the whole length of the gut. […]
Data are expressed as mean±standard deviation (SD). […]

T1 sequence (Q07343 324-656): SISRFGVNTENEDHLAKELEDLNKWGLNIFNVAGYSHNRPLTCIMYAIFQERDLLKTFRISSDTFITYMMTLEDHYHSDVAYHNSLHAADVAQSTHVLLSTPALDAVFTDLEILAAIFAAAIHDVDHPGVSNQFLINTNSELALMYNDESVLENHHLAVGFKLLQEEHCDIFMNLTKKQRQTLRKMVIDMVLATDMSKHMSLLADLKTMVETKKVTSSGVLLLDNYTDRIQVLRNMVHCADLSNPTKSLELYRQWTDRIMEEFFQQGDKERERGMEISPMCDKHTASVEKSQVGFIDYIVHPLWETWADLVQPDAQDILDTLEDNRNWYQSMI

IC50 (PDE4B) [nM]	intestinal transit vs negative control (conscious rats [3])	Compound	ED50 as restated in the dose table of the gastrointestinal study [1]	further results
3.3		[O-][S+]1CCc2nc(N3CCC(c4ccc(Cl)cc4)CC3)nc(NC3(CO)CC3)c21 (centres unmarked) [Prior art compound A]		
7.3		[O-][S+]1CCc2nc(N3CCC(c4cccc(Cl)c4)CC3)nc(NC3(CO)CC3)c21 (centres unmarked) [Prior art compound D]		

Further lines, the compound ahead of its results:

Compound	IC50 (PDE4B) [nM]	intestinal transit vs negative control (conscious rats [3])	ED50 as restated in the dose table of the gastrointestinal study [1]	further results
[O-][S+]1CCc2nc(N3CCC(c4ccc(Cl)cc4)CC3)nc(NC3(CO)CCC3)c21 (single isomer, unassigned) [Example 1]	4.3	no significant differences	(ED50 = 0.31 mg/kg BW	gastric emptying vs negative control (conscious rats [2]; 3-fold ED50 dose p.o., 30 min before test meal): no relevant differences; gastric emptying vs negative control (conscious rats [2]; 10-fold ED50 dose p.o., 30 min before test meal): no relevant differences; gastric emptying vs negative control (weight difference per body weight) (conscious rats [2]; 30-fold ED50 dose p.o., 30 min before test meal): only a very moderate enhancement
[O-][S+]1CCc2nc(N3CCC(c4ncc(Cl)cn4)CC3)nc(NC3(CO)CCC3)c21 (single isomer, unassigned) [Example 2]	7.2	no relevant differences	(ED50 = 0.1 mg/kg BW	gastric emptying vs negative control (conscious rats [2]; all tested doses (3-, 10-, 30-fold ED50) p.o.): no relevant differences
[O-][S+]1CCc2nc(N3CCC(c4c[nH]cn4)CC3)nc(NC3(CO)CC3)c21 (centres unmarked) [Prior art compound B]	66			
[O-][S+]1CCc2nc(N3CCC(c4ccncc4)CC3)nc(NC3(CO)CC3)c21 (centres unmarked) [Prior art compound C]	44			

Reference: US20130059866A1, “NOVEL PIPERIDINO-DIHYDROTHIENOPYRIMIDINE SULFOXIDES AND THEIR USE FOR TREATING COPD AND ASTHMA” (BOEHRINGER INGELHEIM INTERNATIONAL GMBH, priority 2011, published 2013)
